# In the supplement of paper PMC10307832:
# Experiments:
# Experiment in all cases: relative viability (nuclei count vs DMSO), 5 days (fraction); higher = more cells survive
# Axitinib + OSI-027 = compound: CNC(=O)c1ccccc1Sc1ccc2c(/C=C/c3ccccn3)n[nH]c2c1 [Axitinib] + COc1cccc2cc(-c3nc([C@H]4CC[C@H](C(=O)O)CC4)n4ncnc(N)c34)[nH]c12 [OSI-027] (partner 0.5 µM)
# Outline: (§1)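 Medians of duplicate plates are given as relative viability. That measure is the nuclei count in treated wells divided by the count in vehicle wells. Counts were taken on 4× images of lung cancer cell lines in 1536-well plates, 5 days after pin-tool dosing the day after seeding with one drug alone or a fixed anchor-drug dose plus five library-drug doses (not always all listed) in √10 steps.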
# Axitinib + Olaparib = compound: CNC(=O)c1ccccc1Sc1ccc2c(/C=C/c3ccccn3)n[nH]c2c1 [Axitinib] + O=C(c1cc(Cc2n[nH]c(=O)c3ccccc23)ccc1F)N1CCN(C(=O)C2CC2)CC1 [Olaparib] (partner 8 µM)
# Outline: as §1
# Bemcentinib + Pictilisib = compound: Nc1nc(Nc2ccc3c(c2)CC[C@@H](N2CCCC2)CC3)nn1-c1cc2c(nn1)-c1ccccc1CCC2 [Bemcentinib] + CS(=O)(=O)N1CCN(Cc2cc3nc(-c4cccc5[nH]ncc45)nc(N4CCOCC4)c3s2)CC1 [Pictilisib] (partner 1 µM)
# Outline: as §1
# Bemcentinib + Olaparib = compound: Nc1nc(Nc2ccc3c(c2)CC[C@@H](N2CCCC2)CC3)nn1-c1cc2c(nn1)-c1ccccc1CCC2 [Bemcentinib] + O=C(c1cc(Cc2n[nH]c(=O)c3ccccc23)ccc1F)N1CCN(C(=O)C2CC2)CC1 [Olaparib] (partner 8 µM)
# Outline: as §1
Cell Line,relative viability (Axitinib + OSI-027; first compound 0.005 µM),relative viability (Axitinib + OSI-027; first compound 0.01581 µM),relative viability (Axitinib + OSI-027; first compound 0.05 µM),relative viability (Axitinib + OSI-027; first compound 0.1581 µM),relative viability (Axitinib + OSI-027; first compound 0.5 µM),relative viability (Axitinib + Olaparib; first compound 0.005 µM),relative viability (Axitinib + Olaparib; first compound 0.01581 µM),relative viability (Axitinib + Olaparib; first compound 0.05 µM),relative viability (Axitinib + Olaparib; first compound 0.1581 µM),relative viability (Axitinib + Olaparib; first compound 0.5 µM),relative viability (Bemcentinib + Pictilisib; first compound 0.04 µM),relative viability (Bemcentinib + Pictilisib; first compound 0.1265 µM),relative viability (Bemcentinib + Pictilisib; first compound 0.4 µM),relative viability (Bemcentinib + Pictilisib; first compound 1.265 µM),relative viability (Bemcentinib + Pictilisib; first compound 4 µM),relative viability (Bemcentinib + Olaparib; first compound 0.04 µM),relative viability (Bemcentinib + Olaparib; first compound 0.1265 µM),relative viability (Bemcentinib + Olaparib; first compound 0.4 µM),relative viability (Bemcentinib + Olaparib; first compound 1.265 µM),relative viability (Bemcentinib + Olaparib; first compound 4 µM)
ChaGo-K-1,0.547,0.505,0.67,0.554,0.591,0.473,0.445,0.412,0.441,0.438,0.579,0.733,0.795,0.426,0.434,0.403,0.371,0.467,0.438,0.423
NCI-H1755,0.772,0.783,0.724,0.674,0.894,0.897,0.867,0.852,0.847,0.852,0.331,0.459,0.496,0.485,0.443,0.92,0.868,0.929,0.951,0.935
NCI-H1666,1.01,0.86,0.88,0.825,0.855,0.741,0.756,0.7,0.765,0.728,0.313,0.596,0.427,0.43,0.55,0.742,0.887,0.731,0.713,0.713
PC-3 [JPC-3],0.762,0.668,0.809,0.72,0.915,1.16,,1.19,1.12,1.44,0.724,0.933,0.802,0.764,0.732,1.08,1.15,1.17,1.11,1.06
NCI-H358,0.785,0.737,0.874,0.681,1.02,0.741,0.567,0.6,0.594,0.682,0.331,0.347,0.336,0.372,0.359,0.59,0.622,0.598,0.593,0.669
NCI-H1975,0.813,0.744,0.714,0.673,0.711,0.822,0.816,0.859,0.774,0.805,0.279,0.291,0.301,0.28,0.277,0.803,0.954,0.951,0.849,0.749
LC-2-ad,0.932,0.827,0.907,0.8,0.807,0.735,0.693,0.738,0.708,0.76,0.456,0.536,0.553,0.426,0.424,0.719,0.676,0.767,0.711,0.655
NCI-H1993,0.549,0.573,0.582,0.481,0.484,1,1.12,1.04,1.01,1.04,0.833,0.853,0.834,0.904,0.777,1.05,1.23,1,1.15,1.16
CAL-12T,0.847,0.684,0.728,0.597,0.634,0.736,0.716,0.736,0.698,0.701,0.302,0.569,0.532,0.347,0.364,0.705,0.751,0.716,0.77,0.698
NCI-H1650,0.706,0.513,0.721,0.64,1.01,0.876,0.712,0.797,0.91,0.89,0.526,0.519,0.548,0.631,0.731,0.692,0.822,0.818,0.77,0.739
H3255,0.651,0.512,0.612,0.599,0.544,0.615,0.565,0.566,0.572,0.639,0.463,0.488,0.448,0.465,0.557,0.533,0.589,0.537,0.599,0.491
NCI-H2228,0.518,0.611,0.716,0.532,0.659,0.636,0.706,0.713,0.466,0.91,,0.444,0.479,0.535,0.343,0.379,0.616,0.593,0.707,0.749
NCI-H727,0.785,0.425,0.54,0.528,0.699,0.59,0.756,0.759,0.665,0.652,0.221,0.358,0.413,0.41,0.456,0.678,0.618,0.813,0.52,0.747
